Results from patent publication US9205098B2, “Anti-cancer therapies” (Threshold Pharmaceuticals, Inc., priority 2004, dated 2015).

What was measured:
[1] = test system: pancreatic cancer cell lines; conditions: in vitro; cited from earlier work
[2] = test system: advanced pancreatic cancer; conditions: patients with advanced pancreatic cancer; cited from earlier work
[3] = test system: tumors derived from HS766-T human pancreatic cancer cells; assay: HS766-T human pancreatic cancer tumor model in mice; assay type: in vivo, female NMRI nu/nu mice
Method: (§1) A combination of glufosfamide and gemcitabine was administered daily for 7 days to female NMRI nu/nu mice that were carrying tumors derived from HS766-T or As-PC-1 human pancreatic cancer cells. Mice were administered doses of vehicle control (0.9% sodium chloride solution, i.v.), gemcitabine (i.p.), glufosfamide (i.v.) or gemcitabine/glufosfamide combinations once daily for 7 consecutive days. A dose of 1.25 mg/kg was used as the standard dose for gemcitabine throughout the study.

[4] = test system: tumors derived from As-PC-1 human pancreatic cancer cells; assay: As-PC-1 human pancreatic cancer tumor model in mice; assay type: in vivo, female NMRI nu/nu mice; conditions: glufosfamide i.v., gemcitabine i.p., alone or in combination, once daily for 7 days
Method: as §1

[5] = test system: tumors derived from type MiPaca2 human pancreatic cancer cells; assay: MiPaca2 human pancreatic cancer tumor model in nude mice; assay type: in vivo
Method: A combination of glufosfamide and gemcitabine was administered to nude mice that were carrying tumors derived from type MiPaca2 human pancreatic cancer cells. Mice were administered doses of vehicle control, gemcitabine, glufosfamide, or gemcitabine/glufosfamide combinations as tabulated in Table 1 below (10 mice/group). Glufosfamide was administered i.v., daily for 14 days (Groups 1-4 and 7-12). Gemcitabine was administered at 300 mg/kg, i.p., once a week for three weeks (Groups 6 and 10-12). Gemcitabine was administered at 150 mg/kg, i.p., twice a week for three weeks (Groups 5 and 7-9).

Nc1nc2[nH]cc(CCc3ccc(C(=O)N[C@@H](CCC(=O)O)C(=O)O)cc3)c2c(=O)[nH]1 [pemetrexed]
activity against pancreatic cancer cell lines [1]: active
activity in patients [2]: has shown activity

Nc1ccn([C@@H]2O[C@H](CO)[C@@H](O)C2(F)F)c(=O)n1 [gemcitabine, 2′-deoxy-2′,2′-difluoro-cytidine]
inhibitory effect on tumor progression ([3]; gemcitabine alone 1.25 mg/kg i.p. once daily for 7 days): only a marginal inhibitory effect
inhibitory effect on tumor growth [4]: no apparent inhibitory effect on tumor growth

O=P(NCCCl)(NCCCl)O[C@@H]1O[C@H](CO)[C@@H](O)[C@H](O)[C@H]1O [glufosfamide, β-D-glucosyl-ifosfamide mustard]
onset of tumor growth compared with gemcitabine alone or vehicle control ([3]; glufosfamide 10 mg/kg i.v. once daily for 7 days): dramatic delay in the onset of tumor growth
reduction in tumor size ([5]; Group 3: glufosfamide 30 mg/kg i.v. daily for 14 days): modest reduction in tumor size
reduction in tumor size ([5]; Group 4: glufosfamide 100 mg/kg i.v. daily for 14 days): modest reduction in tumor size
inhibitory effect on tumor growth [4]: no apparent inhibitory effect on tumor growth
